Molecules are shown by their SMILES. Bridge positions count the residues as written; N and C are the ends. Square brackets hold non-standard residues; d marks the D form. Peptide text beside a SMILES is read from it. Trp(1-Me) = Cn1cc(C[C@H](N)C(=O)O)c2ccccc21; dAla(4-thiazolyl) = N[C@H](Cc1cscn1)C(=O)O; 1Nal = N[C@@H](Cc1cccc2ccccc12)C(=O)O; 2Nal = N[C@@H](Cc1ccc2ccccc2c1)C(=O)O; Cit = NC(=O)NCCC[C@H](N)C(=O)O; αMeL = CC(C)C[C@](C)(N)C(=O)O; Thp = NC1(C(=O)O)CCOCC1; Aib = CC(C)(N)C(=O)O

The IC50 is the concentration needed to halve the response being measured.

Assay [1] relates to IL-23 induced STAT3 signaling. Kind of assay: Inhibition of IL-23 induced STAT3 signaling in HEK-Blue IL-23 cells (SEAP reporter). The format is cell-based. To be noted: human IL-23 0.25 ng/ml, read-out: Inhibition of IL-23 induced pSTAT3 (IC50 nM). An excerpt: HEK-Blue™ IL-23 cells (Invivogen) are designed for the detection of bioactive human (hIL-23) and murine IL-23 (mIL-23) by monitoring the activation of the STAT3 pathway. Binding of IL-23 to its receptor on the surface of HEK-Blue™ IL-23 cells triggers a signaling cascade leading to the activation of STAT3 and the subsequent production of secreted embryonic alkaline phosphatase (SEAP). This can be readily assessed using QUANTI-Blue™ Solution, a SEAP detection reagent.
HEK-Blue™ IL-23 cells were cultured as described by Invivogen.
On the first day of assay 10 μL of the HEK-Blue IL-23 cell suspension (final concentration: 10,000 cells/well) and 10 μl of serially diluted compound solutions were dispensed into a 384-well assay plate. After pre-incubation of the reaction mixtures at 37° C./5% CO2/95% humidity for 60 minutes, 10 μl of the humanIL-23 cytokine (final concentration: 0.25 ng/ml) was added to each well for the STAT3 signaling activation. The plate was incubated overnight at 37° C./5% CO2/95% humidity.
On the second day 20 μl per well of Quanti-Blue detection solution (prepared according to the manufacture instruction) was dispensed into a new 384-well plate and followed by the transfer of 5 μl supernatant of the overnight incubated cell/sample mixtures. After incubation of 45 min at room temperature signals were measured with PHERAstar (BMG) at OD 620-655 nm.
Dose response data were fitted with XLfit.

The target in the next assay is T1, human IL-23R (Homo sapiens, UniProt Q5VWK5).
T1 sequence (Q5VWK5 24-355 limits assumed): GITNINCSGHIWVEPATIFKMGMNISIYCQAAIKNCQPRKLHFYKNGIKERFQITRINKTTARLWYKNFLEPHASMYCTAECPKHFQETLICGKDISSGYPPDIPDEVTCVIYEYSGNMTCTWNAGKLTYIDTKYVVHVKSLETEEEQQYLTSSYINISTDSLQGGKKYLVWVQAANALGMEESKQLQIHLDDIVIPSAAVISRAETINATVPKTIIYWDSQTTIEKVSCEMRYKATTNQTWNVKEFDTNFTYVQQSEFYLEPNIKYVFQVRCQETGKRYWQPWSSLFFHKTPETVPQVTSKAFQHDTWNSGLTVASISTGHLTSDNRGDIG
Kind of assay: Human ELISA IL-23/IL-23R binding inhibition. To be noted: human IL-23 coated, recombinant human IL-23R-Fc chimera. A digest of the protocol: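 Plates coated with human IL-23 at 1 μg/ml overnight at 4° C; serially diluted peptides added with recombinant human IL-23R-Fc at 0.1 μg/ml final, 60 min at RT. Bound receptor detected with anti-human IgG1-HRP and a fluorogenic peroxidase substrate.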
(In general: An ELISA detects its analyte on a solid surface through an enzyme-linked reagent.)

Take `COc1ccc(C[C@@H]2NC(=O)[C@H](CCCNC(=N)N)NC(=O)[C@H](CCC(N)=O)NC(=O)[C@H](Cc3c[nH]c4ccccc34)NC(=O)[C@H]([C@@H](C)O)NC(=O)[C@H](CC(N)=O)NC(=O)[C@H](NC(C)=O)CC(=O)NCCCC[C@@H](C(=O)N[C@@H](CC(N)=O)C(=O)N[C@@H](CC(N)=O)C(N)=O)NC(=O)C(C)(C)NC(=O)[C@H](Cc3ccc4ccccc4c3)NC2=O)cc1` [compound 12] (Ac-[dD]NTWQRY(Me)[2Nal][Aib]KNN-NH2; lactam 1-10): the 50% inhibitory concentration (IC50) in assay [1] is 6590 nM; on human IL-23R it was 14.9 nM.

`COc1ccc(C[C@@H]2NC(=O)[C@H](CCCNC(=N)N)NC(=O)[C@H](CCC(N)=O)NC(=O)[C@H](Cc3c[nH]c4ccccc34)NC(=O)[C@H]([C@@H](C)O)NC(=O)[C@H](CC(N)=O)NC(=O)[C@H](NC(C)=O)CCCCNC(=O)C[C@@H](C(=O)N[C@@H](CC(N)=O)C(=O)N[C@@H](CC(N)=O)C(N)=O)NC(=O)C(C)(C)NC(=O)[C@H](Cc3ccc4ccccc4c3)NC2=O)cc1` [compound 15] (Ac-[dK]NTWQRY(Me)[2Nal][Aib]DNN-NH2; lactam 1-10): the IC50 in assay [1] stood at 426 nM; at human IL-23R, 1.04 nM.

As to `COc1ccc(C[C@@H]2NC(=O)[C@H](C(C)C)NC(=O)[C@H](CCC(N)=O)NC(=O)[C@H](Cc3c[nH]c4ccccc34)NC(=O)[C@H]([C@@H](C)O)NC(=O)[C@H](CC(N)=O)NC(=O)[C@H](NC(C)=O)CCCCNC(=O)C[C@@H](C(=O)N[C@@H](CC(N)=O)C(=O)N[C@@H](CC(N)=O)C(N)=O)NC(=O)C(C)(C)NC(=O)[C@H](Cc3cccc4ccccc34)NC2=O)cc1` [compound 20] (Ac-[dK]NTWQVY(Me)[1Nal][Aib]DNN-NH2; lactam 1-10), the half-inhibitory concentration (IC50) in assay [1] worked out at 10000 nM; on human IL-23R, 15.9 nM.

In the case of `COc1ccc(C[C@@H]2NC(=O)[C@H](CCCNC(=N)N)NC(=O)[C@H](CCC(N)=O)NC(=O)[C@H](Cc3cn(C)c4ccccc34)NC(=O)[C@H]([C@@H](C)O)NC(=O)[C@H](CC(N)=O)NC(=O)[C@H](NC(C)=O)CCCCNC(=O)C[C@@H](C(=O)N[C@@H](CC(N)=O)C(=O)N[C@@H](CC(N)=O)C(N)=O)NC(=O)[C@](C)(CC(C)C)NC(=O)[C@H](Cc3cccc4ccccc34)NC2=O)cc1` [compound 23] (Ac-[dK]NT[Trp(1-Me)]QRY(Me)[1Nal][αMeL]DNN-NH2; lactam 1-10), the 50% inhibitory concentration (IC50) in assay [1] came to 1960 nM; at human IL-23R it was 12 nM.

For the compound `COc1ccc(C[C@@H]2NC(=O)[C@H](CCCNC(=N)N)NC(=O)[C@H](CCC(N)=O)NC(=O)[C@H](Cc3cn(C)c4ccccc34)NC(=O)[C@H]([C@@H](C)O)NC(=O)[C@H](CC(N)=O)NC(=O)[C@H](NC(C)=O)CCCCNC(=O)C[C@@H](C(=O)N[C@@H](CC(N)=O)C(=O)N[C@@H](CC(N)=O)C(N)=O)NC(=O)[C@](C)(CC(C)C)NC(=O)[C@H](Cc3ccc4ccccc4c3)NC2=O)cc1` [compound 24] (Ac-[dK]NT[Trp(1-Me)]QRY(Me)[2Nal][αMeL]DNN-NH2; lactam 1-10), the half-inhibitory concentration (IC50) in assay [1] was found to be 385 nM; at human IL-23R, 1.21 nM.

In the case of `COc1ccc(C[C@@H]2NC(=O)[C@H](CCCNC(=N)N)NC(=O)[C@H](CCC(N)=O)NC(=O)[C@H](Cc3cn(C)c4ccccc34)NC(=O)[C@H]([C@@H](C)O)NC(=O)[C@H](CC(N)=O)NC(=O)[C@H](NC(C)=O)CCCCNC(=O)C[C@@H](C(=O)N[C@@H](CC(N)=O)C(=O)N[C@@H](CC(N)=O)C(N)=O)NC(=O)[C@@H](Cc3cscn3)NC(=O)[C@H](Cc3ccc4ccccc4c3)NC2=O)cc1` [compound 25] (Ac-[dK]NT[Trp(1-Me)]QRY(Me)[2Nal][dAla(4-thiazolyl)]DNN-NH2; lactam 1-10), the IC50 was 3830 nM in assay [1] and 9.61 nM at human IL-23R.

Turning to `COc1ccc(C[C@@H]2NC(=O)[C@H](CCCNC(=N)N)NC(=O)[C@H](CCC(N)=O)NC(=O)[C@H](Cc3c[nH]c4ccccc34)NC(=O)[C@H]([C@@H](C)O)NC(=O)[C@H](CC(N)=O)NC(=O)[C@H](NC(C)=O)CCCCNC(=O)C[C@@H](C(=O)N[C@@H](CC(N)=O)C(=O)N[C@@H](CC(N)=O)C(N)=O)NC(=O)[C@H](CCCNC(N)=O)NC(=O)[C@H](Cc3ccc4ccccc4c3)NC2=O)cc1` [compound 29] (Ac-[dK]NTWQRY(Me)[2Nal][Cit]DNN-NH2; lactam 1-10), the IC50 was 2720 nM in assay [1] and 5.63 nM at human IL-23R.

`COc1ccc(C[C@@H]2NC(=O)[C@H](C(C)C)NC(=O)[C@H](CCC(N)=O)NC(=O)[C@H](Cc3c[nH]c4ccccc34)NC(=O)[C@H]([C@@H](C)O)NC(=O)[C@H](CC(N)=O)NC(=O)[C@H](NC(C)=O)CCCCNC(=O)C[C@@H](C(=O)N[C@@H](CC(N)=O)C(=O)N[C@@H](CC(N)=O)C(N)=O)NC(=O)C(C)(C)NC(=O)[C@H](Cc3ccc4ccccc4c3)NC2=O)cc1` [compound 31] (Ac-[dK]NTWQVY(Me)[2Nal][Aib]DNN-NH2; lactam 1-10): the values for the 50% inhibitory concentration (IC50) (in assay [1]; at human IL-23R) were 128 nM and 8.27 nM, respectively.

In the case of `COc1ccc(C[C@@H]2NC(=O)C(C)(C)NC(=O)[C@H](CCC(N)=O)NC(=O)[C@H](Cc3c[nH]c4ccccc34)NC(=O)[C@H]([C@@H](C)O)NC(=O)[C@H](CC(N)=O)NC(=O)[C@H](NC(C)=O)CCCCNC(=O)C[C@@H](C(=O)N[C@@H](CC(N)=O)C(=O)N[C@@H](CC(N)=O)C(N)=O)NC(=O)C(C)(C)NC(=O)[C@H](Cc3ccc4ccccc4c3)NC2=O)cc1` [compound 32] (Ac-[dK]NTWQ[Aib]Y(Me)[2Nal][Aib]DNN-NH2; lactam 1-10), the IC50 in assay [1] came to 320 nM; on human IL-23R it was 2.68 nM.

Turning to `COc1ccc(C[C@@H]2NC(=O)[C@H](CCCNC(=N)N)NC(=O)[C@H](CCC(N)=O)NC(=O)[C@H](Cc3c[nH]c4ccccc34)NC(=O)[C@H]([C@@H](C)O)NC(=O)[C@H](CC(N)=O)NC(=O)[C@@H](NC(C)=O)CCCCNC(=O)C[C@@H](C(=O)N[C@@H](CC(N)=O)C(=O)N[C@@H](CC(N)=O)C(N)=O)NC(=O)C3(CCOCC3)NC(=O)[C@H](Cc3ccc4ccccc4c3)NC2=O)cc1` [compound 41] (Ac-KNTWQRY(Me)[2Nal][Thp]DNN-NH2; lactam 1-10), the figures for the IC50 (in assay [1]; at human IL-23R) were 221 nM and 1.47 nM, respectively.

Values taken from patent publication US20260250322A1, “NEW PEPTIDES AS SELECTIVE IL-23 RECEPTOR INHIBITORS” (SANOFI, priority 2023, published 2026).
